Paper PMC4287680, “Targeting GLP-1 receptors for repeated magnetic resonance imaging differentiates graded losses of pancreatic beta cells in mice” (Diabetologia, 2014)

Test system: pancreas of RIP-DTr mice
Assay: Total pancreas insulin content (acid-ethanol extraction, ELISA) after DT
Type: in vivo
Excerpt: Rat insulin promoter-diphtheria toxin receptor (RIP-DTr) mice were generated as reported. Briefly, the transgene containing an insulin promoter and the diphtheria toxin (DT) receptor coding sequence (RIP-DTr) was targeted to the Hprt locus of the X chromosome. Thus, in this model, DT administration leads to a parallel loss of insulin content and beta cells, which is partially due to the random X inactivation (on average 50%) in hemizygous female mice and nearly complete ablation in male mice.
To evaluate the total insulin content of the pancreas, whole glands were carefully dissected and extracted in acid-ethanol for 24 h, as reported. Pancreas insulin content was evaluated using a rodent insulin ELISA kit (Mercodia, Uppsala, Sweden) according to the manufacturer’s instructions.
Three-to-four-months-old male and female mice of the RIP-DTr strain [33, 36] were tested before and after DT administration. Mice were initially imaged before the injection of a probe to obtain a baseline T2 value (ESM Fig. 2). […] One week after this first imaging session, the same mice were given three intraperitoneal injections of 125 ng DT (injections administered on days 7, 9 and 11; ESM Fig. 2) and were monitored for non-fasting blood glucose by measuring tail-vein blood samples with a glucose meter. […]

Substance: Diphtheria toxin [DT]
- Pancreas insulin content after DT, female mice (average) (female RIP-DTr mice, up to 3 months after DT administration (3 × 125 ng i.p.)): 63 % of the control levels
- Pancreas insulin content after DT, male mice (male RIP-DTr mice after DT administration (3 × 125 ng i.p.)): 0.4 % of control levels
